In US20250368639A1, “SOLID FORMS OF A COMPOUND FOR TREATING OR PREVENTING HYPERURICEMIA OR GOUT” (ATOM THERAPEUTICS CO., LTD, priority 2022, published 2025):

What was measured:
[1] = Uric acid excretion in mice; format: in vivo; conditions: in comparison with other treatments
[2] = rat, in vivo
[3] = test system: normal liver cells; assay: Toxicity to normal liver cells; format: cell-based; conditions: in comparison with other treatments
[4] = biological target: T1, URAT1 (Homo sapiens, UniProt Q96S37); assay: Inhibitory effect on URAT1; conditions: in comparison with other treatments
T1 sequence (Q96S37 1-553): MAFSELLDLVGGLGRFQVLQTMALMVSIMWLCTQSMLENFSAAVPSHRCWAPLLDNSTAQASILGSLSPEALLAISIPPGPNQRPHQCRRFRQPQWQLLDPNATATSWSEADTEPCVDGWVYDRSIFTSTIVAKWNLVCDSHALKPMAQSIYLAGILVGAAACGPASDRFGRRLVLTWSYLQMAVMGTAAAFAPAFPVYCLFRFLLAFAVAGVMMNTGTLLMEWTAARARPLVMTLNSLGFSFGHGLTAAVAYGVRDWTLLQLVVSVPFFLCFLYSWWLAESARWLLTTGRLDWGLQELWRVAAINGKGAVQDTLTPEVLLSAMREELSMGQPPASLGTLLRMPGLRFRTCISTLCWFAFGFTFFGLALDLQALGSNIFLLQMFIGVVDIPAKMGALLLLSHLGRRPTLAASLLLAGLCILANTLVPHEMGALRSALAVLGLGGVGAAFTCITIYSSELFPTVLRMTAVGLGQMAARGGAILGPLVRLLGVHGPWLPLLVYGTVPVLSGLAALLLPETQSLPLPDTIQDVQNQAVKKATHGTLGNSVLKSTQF

CCc1nc2ccccn2c1C(=O)c1cc(Br)c(O)c(C#N)c1 [Compound I, 3-bromo-5-[(2-ethylimidazo[1,2-a]pyridin-3-yl)carbonyl]-2-hydroxybenzonitrile]
Uric acid excretion [1]: significantly increase uric acid excretion in mice
Toxicity (oral maximum tolerated dose, acute toxicity test) [2]: much lower than other treatments
Toxicity to normal liver cells [3]: reduce the toxicity to normal liver cells
Inhibitory effect on URAT1 [4]: significantly improve the inhibitory effect on URAT1
